From ChEMBL document CHEMBL5325400 (Eur J Med Chem, 2023)
Calls of active or inactive are those of the source. The rule behind the calls is not given here.

What was measured:
SK-OV-3 = test: Antiproliferative activity against human SK-OV-3 cells assessed as inhibition of cell growth measured after 48 hrs by MTT assay; format: functional, cell-based; conditions: SK-OV-3, 48 h
HepG2 = test: Antiproliferative activity against human HepG2 cells assessed as inhibition of cell growth measured after 48 hrs by MTT assay; format: functional, cell-based; conditions: HepG2, 48 h
HeLa = test: Antiproliferative activity against human HeLa cells assessed as inhibition of cell growth measured after 48 hrs by MTT assay; format: functional, cell-based
A2780/Taxol = test: Antiproliferative activity against paclitaxel resistant human A2780/Taxol cells assessed as inhibition of cell growth incubated for 48 hrs by MTT assay; format: functional, cell-based
A549 [1] = test: Inhibition of colony formation in human A549 cells incubated for 6 days by crystal violet staining based analysis; format: functional, cell-based; conditions: dose 1-20 nM, time 6.0 day
Tubulin (Sus scrofa) = Tubulin (Sus scrofa) (UniProt P02554+P02550); test: Inhibition of porcine brain tubulin polymerization at 10 uM measured at 1 min interval for 60 mins by fluorescence based analysis
Tubulin (Sus scrofa), sequence (P02550 whole entry, looked up): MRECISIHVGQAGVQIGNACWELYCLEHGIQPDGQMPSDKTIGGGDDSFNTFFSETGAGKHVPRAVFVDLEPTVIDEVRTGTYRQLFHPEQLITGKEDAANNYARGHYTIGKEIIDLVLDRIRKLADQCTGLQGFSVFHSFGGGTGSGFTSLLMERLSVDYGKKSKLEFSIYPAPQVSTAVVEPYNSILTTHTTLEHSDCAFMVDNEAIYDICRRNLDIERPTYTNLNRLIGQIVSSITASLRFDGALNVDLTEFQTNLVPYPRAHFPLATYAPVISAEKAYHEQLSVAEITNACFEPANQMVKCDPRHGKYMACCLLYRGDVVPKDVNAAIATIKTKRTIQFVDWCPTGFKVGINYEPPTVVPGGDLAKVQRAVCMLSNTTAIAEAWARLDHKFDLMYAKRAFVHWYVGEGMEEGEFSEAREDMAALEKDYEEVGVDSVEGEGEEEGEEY
Tubulin (Sus scrofa), sequence (P02554 whole entry, looked up): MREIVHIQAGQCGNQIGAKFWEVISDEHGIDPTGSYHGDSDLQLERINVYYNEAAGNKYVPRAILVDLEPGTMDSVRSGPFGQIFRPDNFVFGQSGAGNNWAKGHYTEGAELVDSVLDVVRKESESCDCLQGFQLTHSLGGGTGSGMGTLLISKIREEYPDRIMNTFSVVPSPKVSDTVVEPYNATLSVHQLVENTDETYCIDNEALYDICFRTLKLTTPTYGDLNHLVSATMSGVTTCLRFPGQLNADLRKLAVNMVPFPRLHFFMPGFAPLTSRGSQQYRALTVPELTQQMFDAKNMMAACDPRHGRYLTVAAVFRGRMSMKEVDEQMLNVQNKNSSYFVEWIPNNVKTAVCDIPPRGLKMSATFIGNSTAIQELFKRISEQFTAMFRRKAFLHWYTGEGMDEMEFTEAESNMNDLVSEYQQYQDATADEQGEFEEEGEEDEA

Tubulin (Homo sapiens) = Tubulin (Homo sapiens) (UniProt P68371+Q9H4B7+P0DPH7+P68366+Q13509+Q71U36+P04350+Q3ZCM7+P07437+P68363+Q9BQE3+Q6PEY2+Q13885+Q9BVA1+Q9BUF5); test: Inhibition of tubulin polymerization in human A549 cells assessed as microtubule network polymerization at 100 nM measured after 18 hrs by Alexa Fluor 488 and DAPI staining based confocal microscopic analysis; format: cell-based
A549 [2] = test: Induction of cell cycle arrest in human A549 cells assessed as accumulation at G1 phase at 40 nM incubated for 24 hrs by PI staining based flow cytometry (Rvb= 65.68%); format: functional
A549 [3] = test: Induction of cell cycle arrest in human A549 cells assessed as accumulation at S phase at 10 nM incubated for 24 hrs by PI staining based flow cytometry (Rvb= 20.94%); format: functional
A549 [4] = test: Induction of apoptosis in human A549 cells assessed as viable cells at 20 nM incubated for 24 hrs by annexin V-FITC/propidium iodide staining based flow cytometry analysis (reference value: 96.44%); format: functional; conditions: read-out: Activity
A549 [5] = test: Induction of apoptosis in human A549 cells assessed as viable cells at 40 nM incubated for 24 hrs by annexin V-FITC/propidium iodide staining based flow cytometry analysis (reference value: 96.44%); format: functional; conditions: read-out: Activity
A549 [6] = test: Induction of apoptosis in human A549 cells assessed as late apoptotic cells at 10 nM incubated for 24 hrs by annexin V-FITC/propidium iodide staining based flow cytometry analysis (reference value: 0.37%); format: functional
A549 [7] = test: Induction of apoptosis in human A549 cells assessed as necrotic cells at 10 nM incubated for 24 hrs by annexin V-FITC/propidium iodide staining based flow cytometry analysis (reference value: 2.36%); format: functional
A549 [8] = test: Antimigratory activity against human A549 cells assessed as inhibition of cell migration at 20 nM and incubated for 12 hrs by scratch wound healing assay (reference value: 29.5 +/- 1.34%); format: functional; design: scale not given: the % may be the effect or the level left
B16-F10 [9] = test: Antimigratory activity against mouse B16-F10 cells assessed as inhibition of cell migration at 20 nM and incubated for 12 hrs by scratch wound healing assay (reference value: 81.9 +/- 0.64%); format: functional; design: scale not given: the % may be the effect or the level left
A549 [10] = test: Inhibition of cell migration in human A549 cells assessed as total number of cells migrated at 20 nM incubated for 12 hrs by crystal violet staining based transwell assay (reference value: 724 +/- 16); format: functional
A549 [11] = test: Inhibition of cell migration in human A549 cells assessed as total number of cells migrated at 40 nM incubated for 12 hrs by crystal violet staining based transwell assay (reference value: 724 +/- 16); format: functional
B16-F10 [12] = test: Inhibition of cell migration in mouse B16-F10 cells assessed as total number of cells migrated at 20 nM incubated for 12 hrs by crystal violet staining based transwell assay (reference value: 692 +/- 11); format: functional
B16-F10 [13] = test: Inhibition of cell migration in mouse B16-F10 cells assessed as total number of cells migrated at 40 nM incubated for 12 hrs by crystal violet staining based transwell assay (reference value: 692 +/- 11); format: functional
[14] = Cmax in Sprague-Dawley rat at 1 mg/kg, iv by LC-MS analysis; format: ADME, organism-based; design: dose 1 mg/kg, route iv; conditions: in vivo
[15] = Volume of distribution in Sprague-Dawley rat at 1 mg/kg, iv by LC-MS analysis; format: ADME, organism-based; conditions: in vivo
[16] = Clearance in Sprague-Dawley rat at 1 mg/kg, iv by LC-MS analysis; format: ADME, organism-based; conditions: in vivo
[17] = Toxicity in BALB/c mouse assessed as adverse effect at 10 mg/kg, ip; format: organism-based; conditions: in vivo
[18] = Toxicity in BALB/c mouse assessed as change in body weight at 10 mg/kg, ip; format: organism-based; conditions: in vivo
A549 [19] = test: Antitumor activity against human A549 cells xenografted in BALB/c mouse assessed as tumor volume at 10 mg/kg, ip administered every other day for 25 days; format: functional; conditions: time 25 day
[20] = Toxicity in BALB/c mouse xenografted with human A549 cells assessed as change in body weight at 10 mg/kg, ip administered every other day for 25 days; format: organism-based; conditions: in vivo, 600 h, time 25 day
A549 [21] = test: Antitumor activity against human A549 cells xenografted in BALB/c mouse assessed as decrease in CD-31 expression in tumor at 10 mg/kg, ip administered every other day for 25 days by immunohistochemistry analysis; format: functional, organism-based; conditions: time 25.0 day
A549 [22] = test: Antitumor activity against human A549 cells xenografted in BALB/c mouse assessed as downregulation of Bcl-2 expression in tumor at 5 mg/kg, ip administered every other day for 25 days by Western blotting analysis; format: functional, organism-based; conditions: time 25.0 day
[23] = Toxicity in BALB/c nude mouse xenografted with human A549 cells assessed as pathological changes in heart at 5 to 10 mg/kg, ip administered every other day for 25 days by hematoxylin and eosin staining based microscopic analysis; format: organism-based; conditions: in vivo, 600 h, dose 5-10 mg/kg, time 25 day
[24] = Toxicity in BALB/c nude mouse xenografted with human A549 cells assessed as pathological changes in spleen at 5 to 10 mg/kg, ip administered every other day for 25 days by hematoxylin and eosin staining based microscopic analysis; format: organism-based; conditions: in vivo, 600 h, dose 5-10 mg/kg, time 25 day
[25] = Toxicity in BALB/c nude mouse xenografted with human A549 cells assessed as pathological changes in lung at 5 to 10 mg/kg, ip administered every other day for 25 days by hematoxylin and eosin staining based microscopic analysis; format: organism-based; conditions: in vivo, 600 h, dose 5-10 mg/kg, time 25 day
[26] = Toxicity in BALB/c nude mouse xenografted with human A549 cells assessed as pathological changes in kidney at 5 to 10 mg/kg, ip administered every other day for 25 days by hematoxylin and eosin staining based microscopic analysis; format: organism-based; conditions: in vivo, 600 h, dose 5-10 mg/kg, time 25 day
A549 [27] = test: Antitumor activity against human A549 cells xenografted in BALB/c mouse assessed as reduction in AKT phosphorylation at S473 residue in tumor at 5 to 10 mg/kg, ip administered every other day for 25 days by Western blotting analysis; format: functional, organism-based; conditions: dose 5-10 mg/kg, time 25.0 day
A549 [28] = test: Residual cell migration in human A549 cells at 10 nM incubated for 12 hrs by crystal violet staining based transwell assay; conditions: A549, 12 h

**Q.** With COc1cccc(Nc2cc(Nc3cccc(NC(=O)C4CC4)c3)ncn2)c1 as the compound, how does the IC50 (SK-OV-3) read?
**A.** 1.5 nM

**Q.** And the IC50 (HepG2)?
**A.** 1.8 nM

**Q.** What about the IC50 (HeLa) of the same compound?
**A.** 3.6 nM

**Q.** What about the IC50 (A2780/Taxol) of the same compound?
**A.** 132 nM

**Q.** What about the inhibition (A549 [1]) of the same compound?
**A.** Dose-Dependent Effect

**Q.** And the inhibition (Tubulin (Sus scrofa))?
**A.** Active

**Q.** And the inhibition (Tubulin (Homo sapiens))?
**A.** Active

**Q.** What about the Activity (A549 [2]) of the same compound?
**A.** 21.8%

**Q.** What about the Activity (A549 [3]) of the same compound?
**A.** 15.3%

**Q.** And the viability at 0.02 µM (A549 [4])?
**A.** 76%

**Q.** What about the viability at 0.04 µM (A549 [5]) of the same compound?
**A.** 63.6%

**Q.** What about the Activity (A549 [6]) of the same compound?
**A.** 9.78%

**Q.** And the Activity (A549 [7])?
**A.** 6.5%

**Q.** And the Activity (A549 [8])?
**A.** 9.8%

**Q.** What about the Activity (B16-F10 [9]) of the same compound?
**A.** 39.7%

**Q.** And the Activity (A549 [10])?
**A.** 397

**Q.** And the Activity (A549 [11])?
**A.** 157

**Q.** What about the Activity (B16-F10 [12]) of the same compound?
**A.** 319

**Q.** And the Activity (B16-F10 [13])?
**A.** 221

**Q.** And the Cmax [14]?
**A.** 87.86 ng/mL

**Q.** What about the Vd [15] of the same compound?
**A.** 1.3 L/kg

**Q.** What about the clearance [16] of the same compound?
**A.** 69.8 mL/min/kg

**Q.** And the Activity [17]?
**A.** Non-Toxic

**Q.** And the Activity [18]?
**A.** Non-Toxic

**Q.** What about the Activity (A549 [19]) of the same compound?
**A.** 63.77%

**Q.** What about the Activity [20] of the same compound?
**A.** Non-Toxic

**Q.** What about the Activity (A549 [21]) of the same compound?
**A.** Active

**Q.** What about the Activity (A549 [22]) of the same compound?
**A.** Active

**Q.** What about the Activity [23] of the same compound?
**A.** Non-Toxic

**Q.** And the Activity [24]?
**A.** Non-Toxic

**Q.** And the Activity [25]?
**A.** Non-Toxic

**Q.** And the Activity [26]?
**A.** Non-Toxic

**Q.** And the Activity (A549 [27])?
**A.** inactive

**Q.** What about the level, % of control at 0.01 µM (A549 [28]) of the same compound?
**A.** 70.6%
